The values that follow come from BindingDB's records for doi:10.1016/S0014-827X(03)00113-7 (Universit&Aagrove, 2003).

Experiment [1] deals with Muscarinic acetylcholine receptor M3 (Homo sapiens, UniProt P20309).
The target in experiment [2] is T1, Muscarinic acetylcholine receptor M2 (Homo sapiens, UniProt P08172).
T1 sequence (P08172 whole entry): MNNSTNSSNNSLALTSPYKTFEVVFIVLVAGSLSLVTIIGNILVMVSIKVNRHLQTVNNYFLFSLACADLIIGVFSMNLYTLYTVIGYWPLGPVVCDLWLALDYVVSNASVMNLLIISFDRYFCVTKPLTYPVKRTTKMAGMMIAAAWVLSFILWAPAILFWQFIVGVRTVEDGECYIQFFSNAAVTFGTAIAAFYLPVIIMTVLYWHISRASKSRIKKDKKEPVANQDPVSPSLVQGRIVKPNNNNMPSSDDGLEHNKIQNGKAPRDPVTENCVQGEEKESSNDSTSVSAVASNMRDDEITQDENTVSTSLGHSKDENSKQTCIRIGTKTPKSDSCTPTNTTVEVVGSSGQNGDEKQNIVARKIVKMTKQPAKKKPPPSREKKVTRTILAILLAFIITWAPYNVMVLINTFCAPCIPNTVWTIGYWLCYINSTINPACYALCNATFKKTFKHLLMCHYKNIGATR

Experiment [3] addresses T2, Muscarinic acetylcholine receptor M5 (Homo sapiens, UniProt P08912).
T2 sequence (P08912 whole entry): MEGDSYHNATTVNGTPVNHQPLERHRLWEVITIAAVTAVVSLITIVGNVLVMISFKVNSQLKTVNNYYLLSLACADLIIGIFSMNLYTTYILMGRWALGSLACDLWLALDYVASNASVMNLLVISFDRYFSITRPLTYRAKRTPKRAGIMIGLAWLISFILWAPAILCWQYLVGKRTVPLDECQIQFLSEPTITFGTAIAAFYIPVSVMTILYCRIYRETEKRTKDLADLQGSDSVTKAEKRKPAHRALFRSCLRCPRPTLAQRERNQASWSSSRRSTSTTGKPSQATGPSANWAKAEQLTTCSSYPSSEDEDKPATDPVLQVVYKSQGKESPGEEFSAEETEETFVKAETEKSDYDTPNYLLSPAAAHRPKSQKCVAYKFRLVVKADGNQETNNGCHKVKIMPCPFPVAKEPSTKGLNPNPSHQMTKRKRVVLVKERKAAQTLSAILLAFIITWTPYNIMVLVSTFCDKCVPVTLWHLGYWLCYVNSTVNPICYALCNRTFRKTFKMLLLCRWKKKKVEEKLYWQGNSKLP

Muscarinic acetylcholine receptor M3, sequence (P20309 whole entry): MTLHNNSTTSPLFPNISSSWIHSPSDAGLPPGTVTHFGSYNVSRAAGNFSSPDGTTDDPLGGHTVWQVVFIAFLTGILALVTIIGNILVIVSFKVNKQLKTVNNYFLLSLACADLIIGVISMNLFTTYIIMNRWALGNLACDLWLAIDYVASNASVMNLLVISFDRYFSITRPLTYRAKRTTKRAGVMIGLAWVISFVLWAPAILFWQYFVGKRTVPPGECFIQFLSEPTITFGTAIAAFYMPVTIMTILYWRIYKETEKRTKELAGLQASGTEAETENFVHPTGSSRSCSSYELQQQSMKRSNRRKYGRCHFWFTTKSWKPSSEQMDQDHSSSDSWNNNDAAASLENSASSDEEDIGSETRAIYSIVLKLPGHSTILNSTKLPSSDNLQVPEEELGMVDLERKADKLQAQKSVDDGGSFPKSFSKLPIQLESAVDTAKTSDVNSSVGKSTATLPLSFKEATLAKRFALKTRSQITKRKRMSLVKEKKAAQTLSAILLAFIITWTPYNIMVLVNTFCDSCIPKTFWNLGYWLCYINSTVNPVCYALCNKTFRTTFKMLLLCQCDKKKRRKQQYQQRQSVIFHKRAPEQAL

Take `Cc1n(CC#CCN2OCCC2=O)cc[n+]1C` [2-[4-(2,3-Dimethyl-1H-imidazolium-1-yl)-2-butynyl]isoxazolidin-3-one iodide]: the Ki (as a rule, a dissociation constant, usually derived from enzyme kinetics or from competition with a known ligand) in experiment [1] worked out at 75.9 nM; in experiment [2], 275 nM; in experiment [3], 132 nM.

For the compound `Cc1nccn1CC#CCOC1=NOCC1` [3-[4-(2-Methyl-1H-imidazol-1-yl)-2-butynyl]oxy-delta2-isoxazoline sesquifumarate], the Ki in experiment [1] was determined as 2.51 nM; in experiment [2] it was 3.63 nM; in experiment [3], 6.17 nM.

For the compound `Cc1nccn1CC#CCOc1ccon1` [3-[4-(2-Methyl-1H-imidazol-1-yl)-2-butynyl]oxyisoxazole sesquifumarate], the Ki came out at 110 nM in experiment [1], 282 nM in experiment [2] and 209 nM in experiment [3].

For the compound `Cc1n(CC#CCOC2=NOCC2)cc[n+]1C` [NSC_0], the figures for the inhibition constant (Ki) in experiment [1], in experiment [2] and in experiment [3] were 6.31 nM, 93.3 nM and 51.3 nM, respectively.

`Cc1n(CC#CCOc2ccon2)cc[n+]1-c1ccc(Br)cc1` [NSC_0]: the Ki amounted to 17 nM in experiment [1], 112 nM in experiment [2] and 60.3 nM in experiment [3].

In the case of `Cc1nccn1CC#CCN1OCCC1=O` [NSC_0], the Ki in experiment [1] stood at 102 nM; in experiment [2], 72.4 nM; in experiment [3], 0.51 nM.
